The target of experiment [1] is T1, RutR (RutR-His6; YcdC) (Escherichia coli, UniProt P0ACU2).
T1 sequence (P0ACU2 1-212): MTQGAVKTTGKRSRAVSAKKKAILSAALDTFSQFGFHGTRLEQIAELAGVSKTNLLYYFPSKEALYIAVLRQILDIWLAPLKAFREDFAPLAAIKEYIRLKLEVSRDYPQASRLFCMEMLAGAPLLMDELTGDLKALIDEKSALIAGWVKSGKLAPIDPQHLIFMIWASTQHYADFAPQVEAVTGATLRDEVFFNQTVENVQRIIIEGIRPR
Type of experiment: binding. The conditions noted are these: read-out: % inhibition at 100 μM.

In experiment [2] the target is T1, RutR (RutR-His6; YcdC). Description: EMSA, inhibition of RutR binding to […]-labelled carP1.

For two compounds, inhibition and IC50 results are on record in PMC2952853 (Nucleic Acids Research, 2010).

Take `Cc1c[nH]c(=O)[nH]c1=O` [thymine]: the inhibition at 100 µM in experiment [1] is ~50%. With `O=c1cc[nH]c(=O)[nH]1` [uracil], the IC50 in experiment [2] is ~100 nM.
